Test system: KKAy mice
Assay: Oral treatment of diabetic KKAy mice (glucose, body weight)
Assay type: in vivo, mouse
Description: Male db/db mice (BKS.Cg-m +/+ LEPR^db) in 6-7 weeks were purchased from The Jackson Laboratory (Bar Harbor, ME, USA). Male KKAy and C57BL/6J mice in 8–10 weeks were obtained from the Institute of Animal Science, Chinese Academy of Medical Sciences and Peking Union Medical College (Beijing, China). Animals were randomly sorted into different treatment groups (8–10 per group). […] Plasma glucose levels were examined at various time points by Accu-Chek Advantage II Glucose Strips (Roche Diagnostics, Basel, Switzerland) and measured by Accu-Chek Advantage (Roche Diagnostics). Animals were sacrificed 24 h after the last dosing and abdominal fat pad, liver, and skeletal muscle from KKAy mice and abdominal fat pad from db/db mice were taken for gene expression analysis.
Figure 2 In vivo effects on blood glucose control and insulin sensitization of chiglitazar. […] Plasma glucose (a and b) and insulin (c) levels were measured at the indicated time points. […] Data are expressed as mean ± SE.
Figure 4 Influence in body and abdominal fat pad weights of chiglitazar. […] Changes in body weight were evaluated at the indicated days (b), and the fat pads were weighed from the scarified animals at day 15 (c). ^# P < 0.05 compared with day 0, and *P < 0.05 compared with Ctrl. n = 8 per group for KKAy, and n = 10 per group for db/db. Data are expressed as mean ± SE.

`O=C(c1ccc(F)cc1)c1ccccc1NC(Cc1ccc(OCCn2c3ccccc3c3ccccc32)cc1)C(=O)O` (centres unmarked) [Chi, 2-[(2-(4-fluorobenzoyl)phenyl)amino]-3-[4-(2-carbazolylethoxy)-phenyl]-propionic acid] was tested, and the Body weight (5 and 20 mg kg^−1 oral daily, 12 days, in comparison with rosiglitazone 5 mg kg^−1) was “did not increase” and the “BG (blood glucose) levels” value (oral daily, 5 to 20 mg kg^−1, 12 days) was “significantly lowered”.

Reference: article PMC3486420, “In Vitro and In Vivo Characterizations of Chiglitazar, a Newly Identified PPAR Pan-Agonist” (PPAR Research, 2012)
